Test results from patent US11591632B2, “Genetically-mutated bacterial strain for detecting estrogenic compound and method for detecting estrogenic compound using the same” (INDUSTRY-UNIVERSITY COOPERATION FOUNDATION HANYANG …, priority 2016, dated 2023).

Experiments:
hERα LBD [1] = molecular target: T1, hERα LBD (Homo sapiens, UniProt P03372); assay type: cell-based; conditions: E. coli FW102 OL2-62 pACλCI::RIP140-FLAG pBRαNTD::hERα LBD-FLAG, 20 μM IPTG, 30 minutes incubation
T1 construct: hERα LBD (N304-T553: amino acid 304, asparagine, through amino acid 553, threonine); expressed in transfected cells; host or cells: E. coli FW102 OL2-62
T1 sequence (P03372 304-553): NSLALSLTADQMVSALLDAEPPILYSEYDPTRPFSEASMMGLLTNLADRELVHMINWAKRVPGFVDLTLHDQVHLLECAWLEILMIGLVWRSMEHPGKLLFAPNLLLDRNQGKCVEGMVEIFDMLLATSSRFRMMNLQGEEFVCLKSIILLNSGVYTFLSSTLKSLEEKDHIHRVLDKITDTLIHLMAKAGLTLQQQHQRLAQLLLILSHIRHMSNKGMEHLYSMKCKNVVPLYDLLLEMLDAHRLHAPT
T1 sequence (P48552 whole entry partner, the tested form may be a part): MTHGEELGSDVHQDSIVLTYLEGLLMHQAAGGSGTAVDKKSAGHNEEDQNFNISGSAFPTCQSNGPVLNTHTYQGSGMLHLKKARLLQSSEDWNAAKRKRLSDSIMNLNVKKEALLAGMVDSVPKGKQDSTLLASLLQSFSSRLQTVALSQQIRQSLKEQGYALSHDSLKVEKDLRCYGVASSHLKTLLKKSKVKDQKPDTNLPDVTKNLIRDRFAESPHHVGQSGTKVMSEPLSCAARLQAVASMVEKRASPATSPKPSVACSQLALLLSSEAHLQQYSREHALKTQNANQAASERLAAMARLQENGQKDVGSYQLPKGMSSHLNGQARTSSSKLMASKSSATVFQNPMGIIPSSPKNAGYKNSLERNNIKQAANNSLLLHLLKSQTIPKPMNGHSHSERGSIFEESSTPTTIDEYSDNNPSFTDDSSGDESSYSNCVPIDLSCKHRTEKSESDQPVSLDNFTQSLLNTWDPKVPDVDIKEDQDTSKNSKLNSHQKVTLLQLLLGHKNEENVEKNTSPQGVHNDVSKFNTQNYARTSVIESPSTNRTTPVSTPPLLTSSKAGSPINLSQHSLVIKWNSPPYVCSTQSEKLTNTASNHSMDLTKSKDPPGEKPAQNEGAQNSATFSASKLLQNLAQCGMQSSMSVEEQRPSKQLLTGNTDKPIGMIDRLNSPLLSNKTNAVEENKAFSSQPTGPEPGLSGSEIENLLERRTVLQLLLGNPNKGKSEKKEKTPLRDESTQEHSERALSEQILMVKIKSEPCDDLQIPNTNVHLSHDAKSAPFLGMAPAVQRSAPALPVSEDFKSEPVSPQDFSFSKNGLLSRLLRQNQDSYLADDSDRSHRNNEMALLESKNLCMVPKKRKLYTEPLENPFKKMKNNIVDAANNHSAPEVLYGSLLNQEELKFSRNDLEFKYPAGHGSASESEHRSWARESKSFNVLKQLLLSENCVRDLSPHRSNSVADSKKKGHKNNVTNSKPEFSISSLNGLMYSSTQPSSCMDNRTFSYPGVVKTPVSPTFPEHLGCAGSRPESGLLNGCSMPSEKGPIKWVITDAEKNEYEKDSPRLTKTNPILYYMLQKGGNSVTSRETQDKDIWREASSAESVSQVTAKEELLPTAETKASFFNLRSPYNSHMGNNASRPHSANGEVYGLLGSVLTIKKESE
T1 sequence (P0A7Z4 1-248 partner limits assumed): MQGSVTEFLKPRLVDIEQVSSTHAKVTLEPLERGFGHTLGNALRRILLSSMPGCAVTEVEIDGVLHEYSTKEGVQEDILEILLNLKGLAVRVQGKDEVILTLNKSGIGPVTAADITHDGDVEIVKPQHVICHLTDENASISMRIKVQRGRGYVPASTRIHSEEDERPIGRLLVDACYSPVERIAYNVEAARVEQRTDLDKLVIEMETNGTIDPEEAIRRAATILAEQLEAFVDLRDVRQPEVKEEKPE
T1 sequence (P03034 whole entry partner, the tested form may be a part): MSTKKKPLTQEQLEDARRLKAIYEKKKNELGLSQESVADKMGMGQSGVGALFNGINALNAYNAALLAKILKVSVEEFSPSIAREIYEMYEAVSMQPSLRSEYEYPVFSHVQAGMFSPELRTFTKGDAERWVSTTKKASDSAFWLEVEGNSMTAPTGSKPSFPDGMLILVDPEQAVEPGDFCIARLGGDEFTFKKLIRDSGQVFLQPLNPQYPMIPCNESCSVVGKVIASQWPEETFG
Protocol: (§1) Afterward, estrogens and EDCs were added at corresponding concentrations, and the cells were further incubated for 30 minutes. Subsequently, 800 μL of the cells were harvested, and resuspended in 800 μL of a buffer solution (60 mM of Na2HPO4, 40 mM of NaH2PO4, 10 mM of KCl, 1 mM of MgSO47H2O, 400 μM of dithiothreitol), followed by measuring OD600 (cell content). Afterward, the cells were lysed by ultrasonication and treated with 160 μL of 4 mg/mL ONPG, and thus a time to change a color of the specimen into yellow was recorded. When the color of the specimen changed to yellow, the reaction was stopped with 400 μL of 1M Na2CO3.

hERα LBD [2] = conditions: LE7197, lacZ expression in Miller units, with IPTG, 30 minutes incubation
Protocol: as §1, with “The E. coli FW102 OL2-62 pACλCI::TIF2 BD-FLAG pBRαNTD::hERα LBD-FLAG strain was inoculated, and cultured up to OD600˜ 0.4 (20 μM IPTG added; the inducible substance for inducing expression of λCI-TIF2 BD-FLAG and αNTD-hERα LBD-FLAG). Afterward, estrogens” for “Afterward, estrogens”
Afterward, through β-galactosidase analysis, the expression of a reporter gene, the lacZ gene, was expressed in terms of Miller units.

| Molecule | Miller units as a function of compound concentration in the specimen (hERα LBD [1]) | concentration that can be sensed/detected by sensor strain (hERα LBD [2]) |
| --- | --- | --- |
| CC(C)(c1ccc(O)cc1)c1ccc(O)cc1 [bisphenol A] | the higher the Miller units |  |
| Oc1ccc(Cc2ccc(O)cc2)cc1 [bisphenol F] |  | several hundred |
| O=S(=O)(c1ccc(O)cc1)c1ccc(O)cc1 [bisphenol S] |  | several hundred |
| nonylphenol | the higher the Miller units | approximately 100 nM |
